The text below walks through data of article PMC8073005, “Antifungal Activity and DNA Topoisomerase Inhibition of Hydrolysable Tannins from Punica granatum L” (International Journal of Molecular Sciences, 2021).

In brackets after ≈: the same amount, converted by molar mass. Like-named read-outs stand apart in the source and are kept apart here.

Experiment [1] has as its system Candida albicans ATCC 10321. The experiment can be described thus: MIC, broth microdilution (human pathogens). The class given is cell-based. The following applies: ATCC10321; Candida albicans ATCC 10321; SDB, 30 °C, 48 h; read-out: Minimum inhibitory concentration (MIC).
The subject of experiment [2] is Cryptococcus var. grubii H99 serotype A. In words: MIC, broth microdilution (human pathogens). Type of experiment: cell-based. The following applies: Cryptococcus var. grubii H99 serotype A; SDB, 30 °C, 48 h; read-out: Minimum inhibitory concentration (MIC). (Dilution methods test growth across graded concentrations, often in twofold steps.)
The subject of a further experiment is Candida parapsilosis 7. The experiment can be described thus: MIC, broth microdilution (human pathogens). Type of experiment: cell-based. The following applies: Lodderomyces parapsilosis; Candida parapsilosis 7; SDB, 30 °C, 48 h; read-out: Minimum inhibitory concentration (MIC).
Experiment [3] has as its system Saccharomyces cerevisiae 42. The experiment can be described thus: MIC, broth microdilution (human pathogens). Type of experiment: cell-based. The note with it: Saccharomyces cerevisiae 42; SDB, 30 °C, 48 h; read-out: Minimum inhibitory concentration (MIC).
In another experiment the test system is Candida parapsilosis. The experiment can be described thus: MIC, broth microdilution (human pathogens). The class given is cell-based. The note with it: Lodderomyces parapsilosis; Candida parapsilosis; SDB, 30 °C, 48 h; read-out: Minimum inhibitory concentration (MIC).
Another experiment concerns Aspergillus candidus 3. The experiment can be described thus: MIC, broth microdilution (human pathogens). The class given is cell-based. The following applies: Aspergillus candidus 3; SDB, 30 °C, 48 h; read-out: Minimum inhibitory concentration (MIC).
The subject of a further experiment is Aspergillus candidus 25. In words: MIC, broth microdilution (human pathogens). The class given is cell-based. The note with it: Aspergillus candidus 25; SDB, 30 °C, 48 h; read-out: Minimum inhibitory concentration (MIC).
In the next experiment the test system is Candida albicans H. The experiment can be described thus: MIC, broth microdilution (human pathogens). Type of experiment: cell-based. The following applies: Candida albicans H; SDB, 30 °C, 48 h; read-out: Minimum inhibitory concentration (MIC).
Experiment [4] concerns C. albicans 1 (clinically isolated strain). In words: Time-kill curves. The following applies: compound at its MIC value, 0–96 h. Type of experiment: cell-based, Candida albicans.
The test system of experiment [5] is Cryptococcus neoformans ATCC 11240. The experiment can be described thus: MIC, broth microdilution (human pathogens). Type of experiment: cell-based. The note with it: ATCC11240; Cryptococcus neoformans ATCC 11240; SDB, 30 °C, 48 h; read-out: Minimum inhibitory concentration (MIC).
In experiment [6] the target is T1, topoisomerase I from Candida albicans (Candida albicans, UniProt Q00313).
T1 sequence (Q00313 1-778): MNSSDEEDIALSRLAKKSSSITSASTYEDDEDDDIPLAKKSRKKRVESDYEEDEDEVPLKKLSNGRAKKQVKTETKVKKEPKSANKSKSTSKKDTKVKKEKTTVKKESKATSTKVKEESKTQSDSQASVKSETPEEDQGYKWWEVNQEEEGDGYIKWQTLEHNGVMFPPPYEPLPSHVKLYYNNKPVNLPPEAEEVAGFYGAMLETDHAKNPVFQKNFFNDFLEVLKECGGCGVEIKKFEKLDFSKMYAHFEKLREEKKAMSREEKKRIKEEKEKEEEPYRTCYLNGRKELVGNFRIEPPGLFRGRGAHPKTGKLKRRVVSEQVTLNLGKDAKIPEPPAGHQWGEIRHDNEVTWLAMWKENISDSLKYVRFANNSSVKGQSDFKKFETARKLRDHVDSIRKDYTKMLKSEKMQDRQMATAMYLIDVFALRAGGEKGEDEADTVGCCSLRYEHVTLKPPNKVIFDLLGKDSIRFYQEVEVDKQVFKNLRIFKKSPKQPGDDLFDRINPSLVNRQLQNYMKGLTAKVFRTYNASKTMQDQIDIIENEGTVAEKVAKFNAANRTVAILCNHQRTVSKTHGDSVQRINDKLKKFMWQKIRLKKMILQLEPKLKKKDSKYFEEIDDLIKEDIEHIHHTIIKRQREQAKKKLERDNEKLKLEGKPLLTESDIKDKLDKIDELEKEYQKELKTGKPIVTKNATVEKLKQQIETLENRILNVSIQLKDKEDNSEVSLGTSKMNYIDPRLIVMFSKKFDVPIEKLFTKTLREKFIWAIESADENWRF
The experiment can be described thus: Topoisomerase I supercoiled DNA relaxation inhibition. The note with it: mean ± SD; relaxation of supercoiled pBR322; concentration range 0.001–200 μM; read-out: IC50 Value Topoisomerase I. The class given is biochemical.

Another experiment concerns Candida albicans 2. In words: MIC, broth microdilution (human pathogens). The class given is cell-based. The following applies: Candida albicans 2; SDB, 30 °C, 48 h; read-out: Minimum inhibitory concentration (MIC).
In experiment [7] the test system is Colletotrichum acutatum s.s. M146-2. In words: MIC, micro-spectrophotometric growth assay (phytopathogens). The class given is cell-based, Colletotrichum acutatum sensu stricto. The following applies: for MIC: Colletotrichum acutatum s.s. M146-2, PDB, 24 °C, dark, imazalil at label dose, read-out: Minimum inhibitory concentration (MIC).
The test system of the next experiment is Candida zeylanoides 33. The experiment can be described thus: MIC, broth microdilution (human pathogens). The class given is cell-based. The note with it: Dujonia zeylanoides; Candida zeylanoides 33; SDB, 30 °C, 48 h; read-out: Minimum inhibitory concentration (MIC).
In another experiment the test system is Candida albicans 1. In words: MIC, broth microdilution (human pathogens). The class given is cell-based. The note with it: Candida albicans 1; SDB, 30 °C, 48 h; read-out: Minimum inhibitory concentration (MIC).
In a further experiment the test system is Candida strains. The experiment can be described thus: Agar Disk Diffusion Assay, Candida strains. Type of experiment: cell-based. On the technique in general: In agar diffusion tests the substance spreads into inoculated agar from a disc or well.
A further experiment has as its system Candida albicans 40. In words: MIC, broth microdilution (human pathogens). The class given is cell-based. The note with it: Candida albicans 40; SDB, 30 °C, 48 h; read-out: Minimum inhibitory concentration (MIC).
A further experiment deals with Candida albicans 44. In words: MIC, broth microdilution (human pathogens). Type of experiment: cell-based. The following applies: Candida albicans 44; SDB, 30 °C, 48 h; read-out: Minimum inhibitory concentration (MIC).

Consider `O=C1OC[C@H]2OC(O)[C@H](O)[C@@H](O)[C@@H]2OC(=O)c2cc(O)c(O)c(O)c2-c2c(O)c(O)c3oc(=O)c4c(c(O)c(O)c5oc(=O)c2c3c54)-c2c1cc(O)c(O)c2O` (mixture of isomers) [Punicalin, punicalin], for which the MIC came out at 127 µM in experiment [1]; 127 µM in experiment [2]; 3.8 µM with Candida parapsilosis 7; 3.8 µM in experiment [3]; 127 µM with Candida parapsilosis; 127 µM in the experiment with Aspergillus candidus 3. Further, the MIC in the experiment on Aspergillus candidus 25 turned out to be 127 µM; in the experiment on Candida albicans H, 1.9 µM; in experiment [5], 1.9 µM; with Candida albicans 2, 3.8 µM; in [7], 255.6 µM; in experiment [7] (S.S.M1462) it was 256 µM. Moreover, the MIC in the experiment on Candida zeylanoides 33 turned out to be 127 µM; in the experiment with Candida albicans 1, 3.8 µM; in the experiment with Candida albicans 40, 127 µM; in the experiment on Candida albicans 44 it was 127 µM. Moreover, the “time-kill curve (susceptibility time-course)” value in experiment [4] was “after 60 h of incubation, punicalin becomes less effective than punicalagin”. Moreover, the IC50 (commonly the concentration that inhibits the measured activity by half) in experiment [6] turned out to be 14.7 ± 0.9 µM. In [7] (C. acutatum s.s., up to 24 h of incubation), this molecule showed a growth reduction of 83%. Besides, the “share of Candida strains with inhibition zone from 11 to 20 mm” value in the experiment on Candida strains (100 µg) came out at 91%.

As for `O=c1oc2c(O)c(O)cc3c(=O)oc4c(O)c(O)cc1c4c23` [Ellagic Acid, ellagic acid], the MIC in [1] was 2.5 µM (≈ 0.755 µg/mL); in experiment [2], 662 µM (≈ 200 µg/mL); in the experiment with Candida parapsilosis 7, 331 µM (≈ 100 µg/mL); in experiment [3], 662 µM (≈ 200 µg/mL); with Candida parapsilosis, 662 µM (≈ 200 µg/mL); with Aspergillus candidus 3, 662 µM (≈ 200 µg/mL). For the same molecule, the MIC with Aspergillus candidus 25 worked out at 662 µM (≈ 200 µg/mL); in the experiment with Candida albicans H it was 331 µM (≈ 100 µg/mL); in experiment [5] it was 331 µM (≈ 100 µg/mL); in the experiment with Candida albicans 2, 2.5 µM (≈ 0.755 µg/mL); in experiment [7], 165.4 µM (≈ 50 µg/mL); in [7] (S.S.M1462), 165 µM (≈ 50 µg/mL). Further, the MIC in the experiment on Candida zeylanoides 33 was 331 µM (≈ 100 µg/mL); in the experiment on Candida albicans 1, 5 µM (≈ 1.51 µg/mL); with Candida albicans 40, 331 µM (≈ 100 µg/mL); with Candida albicans 44 it was 2.5 µM (≈ 0.755 µg/mL). Moreover, the “time-kill curve (susceptibility time-course)” value in experiment [4] is on record as “lowest activity compared with the other compounds”. In experiment [6], the IC50 amounted to 56.6 ± 1.2 µM. Further, the “share of Candida strains with inhibition zone from 21 to 30 mm” value in the experiment with Candida strains (25 μg) was 64%. Also, the “share of Candida tested strains with growth inhibition zone from 11 to 20 mm” value in the experiment with Candida strains (25 μg) amounted to 36%. Besides, in the experiment on Candida strains (62.5 µg), the “share of Candida strains with growth inhibition from 21 to 30 mm” value was 73%.
